Measured values: patent publication US10975055B2, “Inhibitors of interleukin-1 receptor-associated kinases and uses thereof” (Dana-Farber Cancer Institute, Inc., priority 2016, dated 2021)
Where two headings read alike, the source gives them in different places.

Columns and labels:
IRAK1 cysteine 302 = IRAK1 cysteine 302 (Homo sapiens, UniProt P51617); assay: Mass spec labelling studies; format: binding
[1] = tested on: Waldenstrom's, DLBCL, and Burkitt Lymphoma cell lines; assay: Cellular data for covalent IRAK1 inhibitors: cell killing; format: cell-based
IRAK1 = IRAK1 (Homo sapiens, UniProt P51617); assay: IRAK1 Alexa kinase assay (TR-FRET, ADP tracer); format: biochemical
IRAK1, sequence (P51617 whole entry): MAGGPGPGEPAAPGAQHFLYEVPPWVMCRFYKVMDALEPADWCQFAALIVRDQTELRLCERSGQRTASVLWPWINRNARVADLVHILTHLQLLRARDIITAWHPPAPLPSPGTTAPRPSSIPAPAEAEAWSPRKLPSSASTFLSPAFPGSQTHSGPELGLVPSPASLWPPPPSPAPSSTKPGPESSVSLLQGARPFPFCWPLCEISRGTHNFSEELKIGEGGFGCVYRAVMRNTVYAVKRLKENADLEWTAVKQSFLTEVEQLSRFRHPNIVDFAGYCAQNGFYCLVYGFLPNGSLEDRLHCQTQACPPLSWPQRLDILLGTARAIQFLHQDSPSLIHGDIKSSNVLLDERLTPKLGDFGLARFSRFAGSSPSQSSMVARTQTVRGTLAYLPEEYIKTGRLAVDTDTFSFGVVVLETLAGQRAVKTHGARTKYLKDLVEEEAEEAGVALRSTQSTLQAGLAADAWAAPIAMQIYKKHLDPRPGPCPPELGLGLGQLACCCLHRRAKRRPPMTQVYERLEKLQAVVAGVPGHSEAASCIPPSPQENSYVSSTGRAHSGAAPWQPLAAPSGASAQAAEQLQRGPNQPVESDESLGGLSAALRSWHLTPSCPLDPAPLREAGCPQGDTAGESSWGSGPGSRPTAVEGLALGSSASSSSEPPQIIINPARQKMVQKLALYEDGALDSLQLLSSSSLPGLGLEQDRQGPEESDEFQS
Protocol: (§1) Select compounds described herein were evaluated for structure-activity analyses. For IRAK1, the following Alexa kinase assay procedure was followed: in the absence of an inhibitor, ADP formed by a kinase reaction will displace an Alexa Fluor 647 dye-labeled ADP tracer from an Eu3+-labeled anti-ADP antibody, resulting in a decrease in the time-resolved fluorescence resonance energy transfer (TR-FRET) signal. In the presence of an inhibitor, the amount of ADP formed by the kinase reaction is reduced, and the resulting intact antibody-tracer interaction produces a high TR-FRET signal. For IRAK4, the following Z-lyte kinase assay procedure was followed: phosphorylation-dependent protease susceptibility of a double-labeled peptide substrate is detected using fluorescence resonance energy transfer (FRET).

IRAK4 = biological target: T1, IRAK4 (Homo sapiens, UniProt Q9NWZ3); assay: IRAK4 Z-lyte kinase assay (FRET peptide substrate); format: biochemical
T1 sequence (Q9NWZ3 1-460): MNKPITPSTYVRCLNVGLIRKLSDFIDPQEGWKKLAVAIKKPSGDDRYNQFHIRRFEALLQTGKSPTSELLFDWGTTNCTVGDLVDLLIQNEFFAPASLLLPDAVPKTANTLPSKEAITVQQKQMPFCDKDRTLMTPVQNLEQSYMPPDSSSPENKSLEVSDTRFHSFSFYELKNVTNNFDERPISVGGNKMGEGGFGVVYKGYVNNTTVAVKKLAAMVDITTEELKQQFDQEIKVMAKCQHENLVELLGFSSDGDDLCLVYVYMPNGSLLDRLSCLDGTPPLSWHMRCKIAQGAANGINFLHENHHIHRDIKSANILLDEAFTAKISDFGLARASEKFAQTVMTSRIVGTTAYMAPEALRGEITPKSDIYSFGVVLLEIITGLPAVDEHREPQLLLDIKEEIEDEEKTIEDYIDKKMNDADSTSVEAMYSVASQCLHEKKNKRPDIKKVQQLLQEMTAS
Protocol: as §1

In vivo PK studies = conditions: dosed IV
[2] = tested on: MYD88 mutated WM and ABC DLBCL cells; assay: Antiproliferative effects, single agent; format: cell-based
[3] = tested on: MYD88 mutated WM and ABC-DLBCL cells; assay: Synergism evaluation with Ibrutinib: tumor cell killing; format: cell-based; conditions: for Combination Index (CI): synergism evaluation with Ibrutinib
NF-κB activation = NF-κB activation under combination with Ibrutinib; format: cell-based
[4] = tested on: WM patients' bone marrow LPCs; assay: Tumor cell killing in WM patients' bone marrow LPCs; format: cell-based, human; conditions: combination with BTK inhibitor Ibrutinib
[5] = tested on: kinome (off-targets YSK4 and MEK3); assay: Kinome selectivity (kinome tree); format: biochemical

IRAK1 cysteine 302, sequence (P51617 whole entry): as the sequence (P51617 whole entry) above

Row | IC50 (IRAK1; read-out: IRAK1 IC50) [nM] | IC50 (IRAK4; Table 1, read-out: IC50 IRAK4) [nM] | IC50 (IRAK1; Table 1, read-out: IC50 IRAK1) [nM] | IC50 (IRAK4; read-out: IRAK4 IC50) [nM] | Molecule | further results
1 | – | > 10000 | 25 | – | C=CC(=O)Nc1cccc(C(=O)Nc2cccc(NC(=O)c3cccc(-c4ccn[nH]4)n3)c2)c1 [JH-X-119-04] | –
2 | – | > 10000 | 51 | – | CN(C)C/C=C/C(=O)Nc1cccc(C(=O)Nc2ccc(NC(=O)c3cccc(-c4ccn[nH]4)n3)cc2)c1 [JH-X-198] | Combination Index (CI) [3]: < 1.0
3 | 46 | – | – | 154 | C=CC(=O)N[C@H]1CC[C@H](NC(=O)c2ccc(NC(=O)c3cccc(-c4ccn[nH]4)n3)cc2)CC1 [JH-XII-200-1, N-(4-(((1r,4r)-4-acrylamidocyclohexyl)carbamoyl)phenyl)-6-(1H-pyrazol-5-yl)picolinamide] | –
4 | 24 | – | – | 648 | C=CC(=O)N[C@H]1CCC[C@@H](NC(=O)c2ccc(NC(=O)c3cccc(-c4ccn[nH]4)n3)cc2)C1 [JH-XII-200-2, N-(4-(((1R,3S)-3-acrylamidocyclohexyl)carbamoyl)phenyl)-6-(1H-pyrazol-5-yl)picolinamide] | –
5 | 67 | > 10000 | – | > 10000 | C=CC(=O)Nc1cccc(C(=O)Nc2ccc(NC(=O)c3cccc(-c4cnn(C)c4)n3)cc2)c1 [JH-XIII-80-2, N-(4-(3-acrylamidobenzamido)phenyl)-6-(1-methyl-1H-pyrazol-4-yl)picolinamide] | –
6 | 22 | > 10000 | – | > 10000 | C=CC(=O)Nc1cccc(C(=O)Nc2ccc(NC(=O)c3cccc(-c4cn[nH]c4)n3)cc2)c1 [JH-XIII-80-3, N-(4-(3-acrylamidobenzamido)phenyl)-6-(1H-pyrazol-4-yl)picolinamide] | –
7 | 40 | > 10000 | – | > 10000 | C=CC(=O)Nc1cccc(-c2cn(-c3ccc(NC(=O)c4cccc(-c5ccn[nH]5)n4)cc3)nn2)c1 [JH-XIII-96-2, N-(4-(4-(3-acrylamidophenyl)-1H-1,2,3-triazol-1-yl)phenyl)-6-(1H-pyrazol-5-yl)picolinamide] | –

Second part, the molecule before the results:

Row | Molecule | IC50 (IRAK1; read-out: IRAK1 IC50) [nM] | IC50 (IRAK4; Table 1, read-out: IC50 IRAK4) [nM] | IC50 (IRAK1; Table 1, read-out: IC50 IRAK1) [nM] | IC50 (IRAK4; read-out: IRAK4 IC50) [nM] | further results
8 | C=CC(=O)Nc1cccc(C(=O)Nc2ccc(NC(=O)c3cccc(-c4ccn[nH]4)n3)cc2)c1 [JH-X-119-01] | 9.3 | > 10000 | – | – | labelling of IRAK1 (mass spec) (IRAK1 cysteine 302): irreversibly labelled IRAK1 at cysteine 302; cell killing ED50 [1]: micromolar; inhibition of IRAK4 (IRAK4; at concentrations up to 10 μM): no inhibition; Cmax (In vivo PK studies): 9.95 µM; clearance (In vivo PK studies): 18.8 mL/min/kg; half-life (In vivo PK studies): 1.61 h; antiproliferative effects [2]: antiproliferative effects; tumor cell killing, combination with Ibrutinib ([3]; combination with Ibrutinib, MYD88 mutated WM and ABC-DLBCL cells): synergistic tumor cell killing; Combination Index (CI) [3]: < 1.0; NF-κB activation, combination with Ibrutinib (NF-κB activation): suppression; tumor cells killing in WM patients' bone marrow LPCs [4]: more robust tumor cells killing; kinome selectivity: off-target inhibition [5]: only two kinases, YSK4 and MEK3
9 | C=CC(=O)Nc1ccc(C(=O)Nc2ccc(NC(=O)c3cccc(-c4ccn[nH]4)n3)cc2)cc1 [JH-X-119-02] | – | > 10000 | 47 | – | –
10 | C=CC(=O)Nc1ccc(C(=O)Nc2cccc(NC(=O)c3cccc(-c4ccn[nH]4)n3)c2)cc1 [JH-X-119-03] | – | – | 55 | – | –
11 | CCC(=O)Nc1cccc(C(=O)Nc2ccc(NC(=O)c3cccc(-c4ccn[nH]4)n3)cc2)c1 [JH-X-159] | – | > 10000 | 259 | – | –
12 | C=CC(=O)NC12CC(NC(=O)c3ccc(NC(=O)c4cccc(-c5ccn[nH]5)n4)cc3)(C1)C2 [JH-XII-200-3, N-(4-((3-acrylamidobicyclo[1.1.1]pentan-1-yl)carbamoyl)phenyl)-6-(1H-pyrazol-5-yl)picolinamide] | 51 | – | – | 607 | –
13 | C=CC(=O)N[C@H]1CC[C@H](C(=O)Nc2ccc(NC(=O)c3cccc(-c4ccn[nH]4)n3)cc2)CC1 [JH-XII-205-1, N-(4-((1r,4r)-4-acrylamidocyclohexane-1-carboxamido)phenyl)-6-(1H-pyrazol-5-yl)picolinamide] | 88 | – | – | 1110 | –
14 | C=CC(=O)N[C@H]1CCC[C@@H](C(=O)Nc2ccc(NC(=O)c3cccc(-c4ccn[nH]4)n3)cc2)C1 [JH-XII-205-2, N-(4-((1R,3S)-3-acrylamidocyclohexane-1-carboxamido)phenyl)-6-(1H-pyrazol-5-yl)picolinamide] | 72 | > 10000 | – | > 10000 | –
15 | C=CC(=O)Nc1cccc(C(=O)Nc2ccc(NC(=O)c3cccc(-c4cnoc4)n3)cc2)c1 [JH-XIII-80-1, N-(4-(3-acrylamidobenzamido)phenyl)-6-(isoxazol-4-yl)picolinamide] | 12 | > 10000 | – | > 10000 | –
16 | N-(4-(4-acrylamidobenzamido)phenyl)-[2,3′-bipyridine]-6-carboxamide [JH-XIII-77] | 80 | > 10000 | – | > 10000 | –
